These results are taken from US12662469B2 (SIRONAX LTD, priority 2018, dated 2026).

This assay concerns Cell Necrosis. Nature of the assay: Cell necrosis assay / cell viability assay (necrosis inhibitor activity). It is filed as cell-based. The following applies: necrosis inhibitor activity; EC data for 14-191 extrapolated; read-out: EC50.
Take `COc1cccc(CC2CN(C(=O)N3N=CCC3c3ccccc3)C2)c1` (centres unmarked) [Compound 39, (3-(3-methoxybenzyl)azetidin-1-yl)(5-phenyl-4,5-dihydro-1H-pyrazol-1-yl) methanone]: the concentration giving a half-maximal response (EC50) (in general, the midpoint of the concentration-response curve) is 1 to 1000 nM. Then `O=C(N1CC(Cc2ccccc2F)C1)N1N=CCC1c1ccccc1` (centres unmarked) [Compound 40, (3-(2-fluorobenzyl)azetidin-1-yl)(5-phenyl-4,5-dihydro-1H-pyrazol-1-yl)methanone], with 1 to 1000 nM; and `O=C(N1CC(Cc2ccc(F)cc2)C1)N1N=CCC1c1ccccc1` (centres unmarked) [Compound 42, (3-(4-fluorobenzyl)azetidin-1-yl)(5-phenyl-4,5-dihydro-1H-pyrazol-1-yl)methanone], with 1 to 1000 nM; and `COc1cccc(C=C2CN(C(=O)N3N=CCC3c3ccccc3)C2)c1` (centres unmarked) [Compound 43, (3-(3-methoxybenzylidene)azetidin-1-yl)(5-phenyl-4,5-dihydro-1H-pyrazol-1-yl)methanone], with 1 to 1000 nM.

Turning to `O=C(N1CC(Cc2cccc(O)c2)C1)N1N=CCC1c1ccccc1` (centres unmarked) [Compound 44, (3-(3-hydroxybenzyl)azetidin-1-yl)(5-phenyl-4,5-dihydro-1H-pyrazol-1-yl)methanone], the half-maximal effective concentration (EC50) is 1000 to 10000 nM.

Take `O=C(N1CC(=Cc2cccc(F)c2)C1)N1N=CCC1c1ccccc1` (centres unmarked) [Compound 45, (3-(3-fluorobenzylidene)azetidin-1-yl)(5-phenyl-4,5-dihydro-1H-pyrazol-1-yl)methanone]: the EC50 is 1 to 1000 nM.

On to `O=C(N1CC(=Cc2ccc(F)cc2)C1)N1N=CCC1c1ccccc1` (centres unmarked) [Compound 46, (3-(4-fluorobenzylidene)azetidin-1-yl)(5-phenyl-4,5-dihydro-1H-pyrazol-1-yl)methanone], for which the 50% effective concentration (EC50) is 1 to 1000 nM. Regarding `O=C(N1CC(Cc2ccccc2Cl)C1)N1N=CCC1c1ccccc1` (centres unmarked) [Compound 47, (3-(2-chlorobenzyl)azetidin-1-yl)(5-phenyl-4,5-dihydro-1H-pyrazol-1-yl)methanone], the 50% effective concentration (EC50) was 1 to 1000 nM. Then `O=C(N1CC(Cc2cccc(Cl)c2)C1)N1N=CCC1c1ccccc1` (centres unmarked) [Compound 48, (3-(3-chlorobenzyl)azetidin-1-yl)(5-phenyl-4,5-dihydro-1H-pyrazol-1-yl)methanone], with 1 to 1000 nM; and `O=C(N1CC(Cc2ccc(Cl)cc2)C1)N1N=CCC1c1ccccc1` (centres unmarked) [Compound 49, (3-(4-chlorobenzyl)azetidin-1-yl)(5-phenyl-4,5-dihydro-1H-pyrazol-1-yl)methanone], with 1 to 1000 nM. Then `O=C(N1CC(Cc2ccc(F)cc2F)C1)N1N=CCC1c1ccccc1` (centres unmarked) [Compound 50, (3-(2,4-difluorobenzyl)azetidin-1-yl)(5-phenyl-4,5-dihydro-1H-pyrazol-1-yl)methanone], with 1 to 1000 nM; and `O=C(N1CC(Cc2ccc(Cl)cc2F)C1)N1N=CCC1c1ccccc1` (centres unmarked) [Compound 51, (3-(4-chlor-2-fluorobenzyl)azetidin-1-yl)(5-phenyl-4,5-dihydro-1H-pyrazol-1-yl)methanone], with 1 to 1000 nM. As to `O=C(N1CC(Cc2ccc(F)cc2Cl)C1)N1N=CCC1c1ccccc1` (centres unmarked) [Compound 52, (3-(2-chloro-4-fluorobenzyl)azetidin-1-yl)(5-phenyl-4,5-dihydro-1H-pyrazol-1-yl)methanone], the EC50 is 1 to 1000 nM. Under `O=C(N1CC(Cc2ccc(F)cc2F)C1)N1N=CCC1c1cccc(F)c1` (centres unmarked) [Compound 53, (3-(2,4-difluorobenzyl)azetidin-1-yl)(5-(3-fluorophenyl)-4,5-dihydro-1H-pyrazol-1-yl)methanone] stands 1 to 1000 nM; under `O=C(N1CC(Cc2ccc(F)cc2F)C1)N1N=CCC1c1cc(F)cc(F)c1` (centres unmarked) [Compound 54, (3-(2,4-difluorobenzyl)azetidin-1-yl)(5-(3,5-difluorophenyl)-4,5-dihydro-1H-pyrazol-1-yl)methanone], 1 to 1000 nM. Then `O=C(N1CC(=Cc2ccc(F)cc2F)C1)N1N=CCC1c1cc(F)cc(F)c1` (centres unmarked) [Compound 55, (3-(2,4-difluorobenzylidene)azetidin-1-yl)(5-(3,5-difluorophenyl)-4,5-dihydro-1H-pyrazol-1-yl)methanone], with 1 to 1000 nM. In the case of `O=C(N1CC(=Cc2ccccc2F)C1)N1N=CCC1c1cc(F)cc(F)c1` (centres unmarked) [Compound 56, (5-(3,5-difluorophenyl)-4,5-dihydro-1H-pyrazol-1-yl)(3-(2-fluorobenzylidene)azetidin-1-yl)methanone], the EC50 was 1 to 1000 nM. Then `O=C(N1CC(=Cc2ccc(F)cc2)C1)N1N=CCC1c1cc(F)cc(F)c1` (centres unmarked) [Compound 57, (5-(3,5-difluorophenyl)-4,5-dihydro-1H-pyrazol-1-yl)(3-(4-fluorobenzylidene)azetidin-1-yl)methanone], with 1 to 1000 nM; and `O=C(N1CC/C(=C/c2ccccc2)C1)N1N=CCC1c1ccccc1` (centres unmarked) [Compound 58, (Z)-(3-benzylidenepyrrolidin-1-yl)(5-phenyl-4,5-dihydro-1H-pyrazol-1-yl)methanone], with 1 to 1000 nM.

In the case of `O=C(N1CC(Oc2ccccc2)C1)N1N=CCC1c1ccccc1` (centres unmarked) [Compound 59], the EC50 is 1 to 1000 nM.

As to `O=C(N1CC(Oc2ccccc2F)C1)N1N=CCC1c1ccccc1` (centres unmarked) [Compound 60, (3-(2-fluorophenoxy)azetidin-1-yl)(5-phenyl-4,5-dihydro-1H-pyrazol-1-yl)methanone], the concentration giving a half-maximal response (EC50) was 1 to 1000 nM.

Consider `O=C(N1CC(Oc2cccc(F)c2)C1)N1N=CCC1c1ccccc1` (centres unmarked) [Compound 61, (3-(3-fluorophenoxy)azetidin-1-yl)(5-phenyl-4,5-dihydro-1H-pyrazol-1-yl)methanone], for which the concentration giving a half-maximal response (EC50) was 1 to 1000 nM. Then `O=C(N1CC(Oc2ccc(F)cc2)C1)N1N=CCC1c1ccccc1` (centres unmarked) [Compound 62, (3-(4-fluorophenoxy)azetidin-1-yl)(5-phenyl-4,5-dihydro-1H-pyrazol-1-yl)methanone], with 1 to 1000 nM. Then `O=C(N1CC(Oc2ccc(F)cc2F)C1)N1N=CCC1c1ccccc1` (centres unmarked) [Compound 63, (3-(2,4-difluorophenoxy)azetidin-1-yl)(5-phenyl-4,5-dihydro-1H-pyrazol-1-yl)methanone], with 1 to 1000 nM; and `O=C(N1CC(Oc2ccccc2Cl)C1)N1N=CCC1c1ccccc1` (centres unmarked) [Compound 64, (3-(2-chlorophenoxy)azetidin-1-yl)(5-phenyl-4,5-dihydro-1H-pyrazol-1-yl)methanone], with 1 to 1000 nM. Then `O=C(N1CC(Oc2ccc(Cl)cc2)C1)N1N=CCC1c1ccccc1` (centres unmarked) [Compound 65, (3-(4-chlorophenoxy)azetidin-1-yl)(5-phenyl-4,5-dihydro-1H-pyrazol-1-yl)methanone], with 1 to 1000 nM. Turning to `O=C(N1CC(Oc2ccc(F)c(F)c2)C1)N1N=CCC1c1ccccc1` (centres unmarked) [Compound 66, (3-(3,4-difluorophenoxy)azetidin-1-yl)(5-phenyl-4,5-dihydro-1H-pyrazol-1-yl)methanone], the EC50 is 1 to 1000 nM.

Turning to `O=C(N1CC(Oc2ccc(F)cc2Cl)C1)N1N=CCC1c1ccccc1` (centres unmarked) [Compound 67, (3-(2-chloro-4-fluorophenoxy)azetidin-1-yl)(5-phenyl-4,5-dihydro-1H-pyrazol-1-yl)methanone], the 50% effective concentration (EC50) is 1 to 1000 nM.

Consider `O=C(N1CC(Oc2ccc(O)cc2)C1)N1N=CCC1c1ccccc1` (centres unmarked) [Compound 70, (3-(4-hydroxyphenoxy)azetidin-1-yl)(5-phenyl-4,5-dihydro-1H-pyrazol-1-yl)methanone], for which the half-maximal effective concentration (EC50) was 1000 to 10000 nM.
